This assay has as its system 186277-243-T-J2-PDC complex spheroid viability. The assay is described as follows: Anticancer human tumor 186277-243-T-J2-PDC patient-derived colon adenocarcinoma cell line growth inhibition [POLQ]. The settings on record: for viability, T/C: stronger effect = lower value. The method, then: Multicellular complex tumor spheroid response to Polymerase (POL) inhibitors (novobiocin, ART-558, RP6685) in combination with a variety of drugs and investigational agents in selected tumor cell lines
The POL inhibitors (novobiocin, ART-558, and RP6685) were evaluated both individually and in combination with standard of care and investigational anticancer small molecules within a complex spheroid model of solid tumors. . Complex spheroids include a stromal component modeled by human endothelial cells (HUVEC) and fibroblasts modeled by human mesenchymal stem cells (MSCs). The concentration ranges selected for each drug and investigational agent were based upon clinically achievable concentrations if the clinical Cmax of the agent was known.
Compounds. The drugs and investigational agents: novobiocin (NSC847541), ART-558 (NSC835418), RP-6685 (NSC848927), peposertib (NSC802822), ceralasertib (NSC780249), elimusertib (NSC800525), camonsertib (NSC841442), AZD-1390 (NSC803789), olaparib (NSC753686), talazoparib (NSC767125), rucaparib (NSC756644), sotorasib (NSC818433), MRTX-1133 (NSC836407), SN-38 (NSC673596), topotecan (NSC609699), epotoside (NSC141540), doxorubicin (NSC123127), gemcitabine (NSC613327), 5-fluorouracil (NSC19893), paclitaxel (NSC125973), vemurafenib (NSC761431), MSA-2 (NSC828583), SN-011 (NSC837082), adavosertib (NSC754352), prexasertib (NSC758257), carboplatin (NSC241240) and oxaliplatin (NSC266046), were obtained from the National Cancer Institute (NCI) Developmental Therapeutics Program Chemical Repository (21). The FDA-approved anticancer drug set is available from the Developmental Therapeutics Program at https://dtp.cancer.gov/organization/dscb/obtaining/. […] The stock solutions were prepared in dimethyl sulfoxide (DMSO, Sigma-Aldrich, St. Louis, MO, cat. D2650), except for the platinum compounds which were prepared in saline (Quality Biological, Gaithersburg, MD, cat. 114-055-101), at 800-fold the tested concentration and stored at -70 degrees C prior to their use. All drugs and investigational agents were tested over a range starting from a high concentration at or near the clinical Cmax and decreasing in half-log increments. If the clinical Cmax for an agent had not been determined, the highest concentration tested was 10 microM, except for SN-38, which was tested at a high concentration of 1 microM.
Cell Culture. All cells were maintained in an incubator at 37 degrees C and 5% CO2 with 95% humidity. The PDC lines were cultured according to standard operating procedures established by the NCI PDMR (https://pdmr.cancer.gov). Table 3 of the manuscript, lists the cell lines along with the number of the three cell types plated to form the mct-spheroids and media for tumor cell growth. After thawing, all PDC lines, except 997537-175-T-J1-PDC and 415267-285-R-J2-PDC, were cultured in Matrigel-coated flasks prepared with a working solution of 1X Ham's F-12 nutrient mix, without supplementation (Thermo Fisher Scientific, cat. 11765054), 100 U/mL penicillin-streptomycin (Thermo Fisher Scientific, cat. 15140122), and 2.5% Matrigel (Corning Inc., Corning, NY, cat. 354248) for the first three passages. The two PDC lines 997537-175-T-J1-PDC and 415267-285-R-J2-PDC were cultured on uncoated flasks. The 857933-349-R-J2-PDC line was cultured in 6C/Colon 1B media containing advanced DMEM/F-12 (Thermo Fisher Scientific, cat. 12634028), 10 mM HEPES (Thermo Fisher Scientific, cat. 15630080), 1X GlutaMAX supplement (Thermo Fisher Scientific, cat. 35050061), 0.1 mg/mL primocin (InvivoGen, San Diego, CA, cat. ant-pm-2), 10% defined fetal bovine serum, heat inactivated (HyClone Laboratories Inc., Logan, UT, cat. SH30070.03HI), 50% L-WRN conditioned media (ATCC, cat. CRL-3276), 1.25 mM N-Acetyl-L-cysteine (Sigma-Aldrich, cat. A9165), 10 mM nicotinamide (Sigma-Aldrich, cat. N0636), 1X B-27 supplement (Thermo Fisher Scientific, cat. 17504044), 1X N-2 supplement (Thermo Fisher Scientific, cat. […]

[1] abbreviates: curve of first compound, second compound 0.0316 µM.
Where [2] appears, read: curve of first compound, second compound 0.1 µM.
[3] abbreviates: curve of first compound, second compound 0.316 µM.
Where [4] appears, read: curve of first compound, second compound 1 µM.
The mark [5] stands for this setting: curve of first compound, second compound 3.16 µM.
Where [6] appears, read: curve of first compound, second compound 10 µM.
[7] abbreviates: second compound 0.0316 µM, first compound 0.0316 µM.
The mark [8] stands for this setting: second compound 0.0316 µM, first compound 0.1 µM.
Setting [9] is: second compound 0.0316 µM, first compound 0.316 µM.
Setting [10] is: second compound 0.0316 µM, first compound 1 µM.
The mark [11] stands for this setting: second compound 0.0316 µM, first compound 3.16 µM.
Setting [12] is: second compound 0.0316 µM, first compound 10 µM.
Where [13] appears, read: second compound 0.1 µM, first compound 0.0316 µM.
The mark [14] stands for this setting: second compound 0.1 µM, first compound 0.1 µM.
Setting [15] is: second compound 0.1 µM, first compound 0.316 µM.
The mark [16] stands for this setting: second compound 0.1 µM, first compound 1 µM.
[17] abbreviates: second compound 0.1 µM, first compound 3.16 µM.
Where [18] appears, read: second compound 0.1 µM, first compound 10 µM.
[19] abbreviates: second compound 0.316 µM, first compound 0.0316 µM.
Setting [20] is: second compound 0.316 µM, first compound 0.1 µM.
[21] abbreviates: second compound 0.316 µM, first compound 0.316 µM.
[22] abbreviates: second compound 0.316 µM, first compound 1 µM.
[23] abbreviates: second compound 0.316 µM, first compound 3.16 µM.
The mark [24] stands for this setting: second compound 0.316 µM, first compound 10 µM.
Setting [25] is: second compound 1 µM, first compound 0.0316 µM.
Setting [26] is: second compound 1 µM, first compound 0.1 µM.
Where [27] appears, read: second compound 1 µM, first compound 0.316 µM.
Where [28] appears, read: second compound 1 µM, first compound 1 µM.
Setting [29] is: second compound 1 µM, first compound 3.16 µM.
[30] abbreviates: second compound 1 µM, first compound 10 µM.
The mark [31] stands for this setting: second compound 3.16 µM, first compound 0.0316 µM.
Where [32] appears, read: second compound 3.16 µM, first compound 0.1 µM.
[33] abbreviates: second compound 3.16 µM, first compound 0.316 µM.
The mark [34] stands for this setting: second compound 3.16 µM, first compound 1 µM.
Where [35] appears, read: second compound 3.16 µM, first compound 3.16 µM.
The mark [36] stands for this setting: second compound 3.16 µM, first compound 10 µM.
Where [37] appears, read: second compound 10 µM, first compound 0.0316 µM.
Setting [38] is: second compound 10 µM, first compound 0.1 µM.
The mark [39] stands for this setting: second compound 10 µM, first compound 0.316 µM.
Where [40] appears, read: second compound 10 µM, first compound 1 µM.
Setting [41] is: second compound 10 µM, first compound 3.16 µM.
Where [42] appears, read: second compound 10 µM, first compound 10 µM.
Setting [43] is: compound alone, run of 11/06/2023.

Values joined by “and” are separate entries in the source; they are usually repeats but may differ in a detail not shown here. Equal values may be shown once.
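Note: spheroids exposed to compounds for seven days.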

By IC50 is commonly meant the point on the concentration scale where inhibition reaches its midpoint. By viability, T/C is commonly meant the ratio of treated to control. On to `O=C(Nc1ccc(O)c(NS(=O)(=O)c2ccc(F)cc2)c1)c1ccc(-c2ccccc2)cc1` + Cc1cccc(N(C)C(=O)C2C(O)CCN2c2nc(C)cc(C(F)(F)F)c2C#N)c1, for which the IC50 reads like this: under setting [1], more than 10 µM; under setting [2], more than 10 µM; under setting [3], more than 10 µM; under setting [4], more than 10 µM; under setting [5], more than 10 µM; under setting [6], more than 10 µM. Moreover, the viability, T/C reads like this: under setting [7], 93.9%; under setting [8], 98.5%; under setting [9], 108%; under setting [10], 86.1%; under setting [11], 116%; under setting [12], 107%. Further, the viability, T/C by setting is: under setting [13], 108%; under setting [14], 102%; under setting [15], 104%; under setting [16], 88.9%; under setting [17], 108%; under setting [18], 105%. The viability, T/C is 86.6% under setting [19]; 106% under setting [20]; 110% under setting [21]; 103% under setting [22]; 102% under setting [23]; 108% under setting [24]. The viability, T/C was 95% under setting [25]; 111% under setting [26]; 103% under setting [27]; 104% under setting [28]; 107% under setting [29]; 109% under setting [30]. Also, the viability, T/C runs as follows: under setting [31], 102%; under setting [32], 94.8%; under setting [33], 102%; under setting [34], 90.8%; under setting [35], 103%; under setting [36], 112%. Besides, the viability, T/C was 100% under setting [37]; 106% under setting [38]; 86.7% under setting [39]; 95.2% under setting [40]; 107% under setting [41]; 115% under setting [42].
Regarding `COc1cc2cc(C(=O)CCC(=O)O)sc2cc1OC` + Nc1ccc(C#CCN(C(=O)Cc2ncc(C(F)(F)F)cc2C(F)(F)F)c2ccc(F)cc2)nn1, the IC50 reads like this: under setting [1], more than 10 µM; under setting [2], more than 10 µM; under setting [3], more than 10 µM; under setting [4], more than 10 µM; under setting [5], more than 10 µM; under setting [6], more than 10 µM. In addition, the viability, T/C is, setting by setting: under setting [7], 83.5%; under setting [8], 87.3%; under setting [9], 92.9%; under setting [10], 88.7%; under setting [11], 93.4%; under setting [12], 85.6%. Moreover, the viability, T/C is 96.3% under setting [13]; 98.5% under setting [14]; 91% under setting [15]; 100% under setting [16]; 90.3% under setting [17]; 103% under setting [18]. The viability, T/C by setting is: under setting [19], 97.5%; under setting [20], 87.5%; under setting [21], 87%; under setting [22], 91.9%; under setting [23], 89.9%; under setting [24], 97.8%. Further, the viability, T/C is 96.1% under setting [25]; 96.5% under setting [26]; 92.2% under setting [27]; 94.3% under setting [28]; 94.8% under setting [29]; 83.2% under setting [30]. Also, the viability, T/C was 78.8% under setting [31]; 105% under setting [32]; 90% under setting [33]; 90.7% under setting [34]; 98.9% under setting [35]; 93.5% under setting [36]. In addition, the viability, T/C was 106% under setting [37]; 94.8% under setting [38]; 81.5% under setting [39]; 90% under setting [40]; 90.5% under setting [41]; 96.5% under setting [42].
Regarding `COc1ccc([C@@H](O)c2cc(-c3ncnc4cc(N5CCOCC5)ccc34)c(F)cc2Cl)nn1`, the viability, T/C reads like this: (compound 0.0316 µM) 113% and 93.8% and 106%; (compound 0.1 µM) 98% and 93.7% and 97.8%; (compound 0.316 µM) 86.5% and 101% and 97.7%; (compound 1 µM) 98.4% and 104% (2×); (compound 3.16 µM) 80.8% and 96.9% and 74.1%; (compound 10 µM) 31.1% and 61% and 30.1%. Also, the IC50 (curve of compound) was 6.45 µM and > 10 µM and 5.93 µM.
Take `Cc1cccc(N(C)C(=O)C2C(O)CCN2c2nc(C)cc(C(F)(F)F)c2C#N)c1` (centres undefined): the viability, T/C is, setting by setting: (compound 0.0316 µM) 107% [middle of 13 runs]; (compound 0.1 µM) 102% [middle of 13 runs]; (compound 0.316 µM) 99.1% [middle of 13 runs]; (compound 1 µM) 97.2% [middle of 13 runs]; (compound 3.16 µM) 95.9% [middle of 13 runs]; (compound 10 µM) 92.7% [middle of 13 runs]. Moreover, the IC50 is, setting by setting: (compound alone, run of 10/31/2023) more than 10 µM; under setting [43], more than 10 µM.
Consider `Nc1ccc(C#CCN(C(=O)Cc2ncc(C(F)(F)F)cc2C(F)(F)F)c2ccc(F)cc2)nn1`, for which the viability, T/C was 103% [middle of 13 runs] (compound 0.0316 µM); 102% [middle of 13 runs] (compound 0.1 µM); 98.7% [middle of 13 runs] (compound 0.316 µM); 101% [middle of 13 runs] (compound 1 µM); 94.9% [middle of 13 runs] (compound 3.16 µM). Further, the IC50 under setting [43] was more than 10 µM.
As for `CNCc1ccc(-c2[nH]c3cc(F)cc4c3c2CCNC4=O)cc1`, the viability, T/C is 101% and 103% and 98.4% (compound 0.0316 µM); 108% and 122% and 93.3% (compound 0.1 µM); 99.6% and 100% and 106% (compound 0.316 µM); 97.1% and 93.2% and 108% (compound 1 µM); 116% and 115% and 119% (compound 3.16 µM); 93.5% and 116% and 103% (compound 10 µM). The IC50 (curve of compound) was more than 10 µM.
Turning to `CCc1c2c(nc3ccc(O)cc13)-c1cc3c(c(=O)n1C2)COC(=O)[C@]3(O)CC`, the viability, T/C was 71.2% and 120% and 58.7% (compound 0.00316 µM); 48.6% and 82.9% and 43.5% (compound 0.01 µM); 25.4% and 47% and 22.2% (compound 0.0316 µM); 12.7% and 25.5% and 10.8% (compound 0.1 µM); 9.65% and 21.7% and 8.26% (compound 0.316 µM); 7.75% and 21.3% and 6.71% (compound 1 µM). Besides, for the setting “curve of compound”, the IC50 is 0.00935 µM and 0.0277 µM and 0.00611 µM.

Source of the values: PubChem BioAssay AID1963854 (Molecular Pharmacology Branch, DTP, NCI, 2024).
